# Test results as given in patent publication US20130079345A1, “[…] ACTIVE DISUBSTITUTED TRIAZINE DERIVATIVES” (BAYER INTELLECTUAL PROPERTY GMBH, priority 2010, published 2013).
# pIC50, pKd: −log10 of the molar value. Where a name gives a salt, the structure may show the parent alone.
# Columns and labels:
# CDK6/CyclinD3 = molecular target: T1, CDK6/CyclinD3 (Homo sapiens, UniProt Q00534); test: Lance Ultra KinaSelect Assay, CDK6; assay type: biochemical; settings: read-out: Inhibition (IC50) CDK6
# T1 construct: purchased Carna
# Protocol: (§1) This protocol describes how the Lance Ultra KinaSelect Assay was performed to determine half maximal inhibitory concentration (IC50) of compounds of general formula (I) and CDK/Cyclin complexes. The principle behind this enzymatic assay is based upon the phosphorylation of the ULight-Peptide Substrat. It is detected by using a specific EU-labeled anti-phospho peptide antibody. The binding of the Eu-labeled anti-phospho peptide antibody to the phosphorylated U Light labeled peptide gives rise to a FRET-signal. Binding of an inhibitor to the kinase prevents phosphorylation of the ULight-MBP Substrat, resulting in a loss of FRET.
# (§2) The compounds of general formula (I) summarized in Table 5 were diluted from a 10 mM DMSO stock solution 1:10 in a total volume of 15 μL DMSO. This compound predilution was then serial diluted 1:3 over 8 steps in DMSO and briefly spun down. Each compound solution was now diluted 1:20 in Enzymatic Buffer (HEPES: 50 mM, pH: 7.5; MgCl2: 10 mM; EGTA: 1 mM; DTT: 2 mM; Tween-20: 0.01%), mixed thoroughly and spun down. For every sample, 2 μL of the diluted compound were mixed with 6 μL CDK/Cyclin/Substrat solution and […] in a well of a small volume 384 well plate (Corning Incorporated, Corning, N.Y., USA; order no. 3673). […] For positive controls, in each well 2 μL of DMSO solution (1% final DMSO assay concentration) was mixed with 6 μL CDK/Cyclin/Substrat (appropriate final concentration see Table 3) and 2 μL Tracer ATP solution (appropriate final concentration see Table 3). Positive and negative controls were calculated from at least 8 different sample wells. The 384 well plates were mixed in a Teleshaker plate mixer (Beckman Coulter, Brea, Calif., USA) at 2000 rpm for 40 sec, and incubated for 1 h at room temperature. Before reading, 10 μL detection buffer (Lance Detection Buffer 1×; EDTA: […]; Eu-Anti-P-MBP: see Table 3) was added. The FRET signal was measured at 340 nm excitation, 665 nm and 615 nm emission (for the kinase tracer and LanthaScreen Eu-AB, respectively) with an Envision spectrophotometer (Perkin Elmer, Waltham, Mass., USA) with 50 μs delay and 300 μs integration time. IC50 values were determined from the sigmoidal dose response curves with the software Quattro Workflow (Quattro GmbH, Munich, Germany).
# CDK2/CyclinA = molecular target: T2, CDK2/CyclinA (Homo sapiens, UniProt P24941); test: Lance Ultra KinaSelect Assay, CDK2; assay type: biochemical; settings: ATP 3 μM, read-out: Inhibition (IC50) CDK2
# T2 construct: purchased Proqinase
# Protocol: as §1, §2
# CDK1/CyclinB1 = molecular target: T3, CDK1/CyclinB1 (Homo sapiens, UniProt P06493); test: Lance Ultra KinaSelect Assay, CDK1; assay type: biochemical; settings: ATP 20 μM, read-out: Inhibition (IC50) CDK1
# T3 construct: purchased Carna
# Protocol: as §1, §2
# CDK9/Cyclin K = molecular target: T4, CDK9/Cyclin K (Homo sapiens, UniProt P50750); test: LanthaScreen Eu Kinase Binding Assay, CDK9/Cyclin K; settings: tracer 236, read-out: Affinity (Kd) CDK9/Cyclin K
# T4 construct: purchased Invitrogen
# In short: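 TR-FRET competition binding with Alexa Fluor 647 tracer and Eu-anti-GST antibody; e.g. CDK2/Cyclin A 15 nM with tracer 236 60 nM (working solutions). Kinase buffer: HEPES 20 mM pH 8.0, MgCl2 10 mM, DTT 1 mM, Brij-35 0.01%; 8-point 1:3 series, 1 h at room temperature; Kd from sigmoidal dose-response curves.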
# T4 sequence (P50750 whole entry): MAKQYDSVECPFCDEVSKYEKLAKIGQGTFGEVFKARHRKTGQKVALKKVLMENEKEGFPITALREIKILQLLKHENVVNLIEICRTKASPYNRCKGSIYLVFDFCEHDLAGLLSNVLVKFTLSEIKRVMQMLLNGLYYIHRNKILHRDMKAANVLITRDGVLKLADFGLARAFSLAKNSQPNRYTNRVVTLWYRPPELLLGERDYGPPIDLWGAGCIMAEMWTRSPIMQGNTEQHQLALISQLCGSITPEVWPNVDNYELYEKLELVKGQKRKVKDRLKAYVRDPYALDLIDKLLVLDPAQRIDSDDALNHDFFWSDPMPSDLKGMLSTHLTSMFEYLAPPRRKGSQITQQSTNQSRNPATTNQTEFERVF
# T4 sequence (O75909 whole entry partner): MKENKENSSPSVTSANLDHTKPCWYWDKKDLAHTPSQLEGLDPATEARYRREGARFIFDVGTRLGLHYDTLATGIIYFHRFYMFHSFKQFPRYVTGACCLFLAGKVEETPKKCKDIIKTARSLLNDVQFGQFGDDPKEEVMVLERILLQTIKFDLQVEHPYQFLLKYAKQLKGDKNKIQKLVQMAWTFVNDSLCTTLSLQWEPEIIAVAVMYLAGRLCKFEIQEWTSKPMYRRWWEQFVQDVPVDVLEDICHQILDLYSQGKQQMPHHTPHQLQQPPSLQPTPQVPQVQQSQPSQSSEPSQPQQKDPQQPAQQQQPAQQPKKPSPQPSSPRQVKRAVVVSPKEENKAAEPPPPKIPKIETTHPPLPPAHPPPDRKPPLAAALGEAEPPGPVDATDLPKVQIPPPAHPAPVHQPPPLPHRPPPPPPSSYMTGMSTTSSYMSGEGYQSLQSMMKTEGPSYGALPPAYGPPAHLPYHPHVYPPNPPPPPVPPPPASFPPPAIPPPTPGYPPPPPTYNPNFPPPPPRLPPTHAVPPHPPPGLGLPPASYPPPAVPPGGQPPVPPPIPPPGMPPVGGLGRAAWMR
# T3 sequence (P06493 whole entry): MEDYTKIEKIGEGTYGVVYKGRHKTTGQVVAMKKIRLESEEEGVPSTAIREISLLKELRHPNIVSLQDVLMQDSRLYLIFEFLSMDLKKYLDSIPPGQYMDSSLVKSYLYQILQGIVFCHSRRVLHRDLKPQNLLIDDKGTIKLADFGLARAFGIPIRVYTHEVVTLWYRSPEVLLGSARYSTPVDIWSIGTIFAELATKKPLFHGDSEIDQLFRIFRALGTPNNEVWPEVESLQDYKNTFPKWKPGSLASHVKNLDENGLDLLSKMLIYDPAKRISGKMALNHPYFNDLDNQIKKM
# T3 sequence (P14635 whole entry partner): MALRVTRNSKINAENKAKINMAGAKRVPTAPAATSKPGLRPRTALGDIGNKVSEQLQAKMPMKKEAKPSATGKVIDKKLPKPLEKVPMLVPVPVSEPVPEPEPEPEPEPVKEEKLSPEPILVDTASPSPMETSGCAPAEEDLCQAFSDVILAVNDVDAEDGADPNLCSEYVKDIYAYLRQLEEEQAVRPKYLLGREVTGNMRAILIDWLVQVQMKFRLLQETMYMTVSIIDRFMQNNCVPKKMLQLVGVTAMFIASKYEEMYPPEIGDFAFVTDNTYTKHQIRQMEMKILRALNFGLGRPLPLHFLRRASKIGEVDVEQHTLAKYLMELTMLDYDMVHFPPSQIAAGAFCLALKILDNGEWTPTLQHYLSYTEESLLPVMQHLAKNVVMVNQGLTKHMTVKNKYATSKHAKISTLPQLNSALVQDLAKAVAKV
# T1 sequence (Q00534 whole entry): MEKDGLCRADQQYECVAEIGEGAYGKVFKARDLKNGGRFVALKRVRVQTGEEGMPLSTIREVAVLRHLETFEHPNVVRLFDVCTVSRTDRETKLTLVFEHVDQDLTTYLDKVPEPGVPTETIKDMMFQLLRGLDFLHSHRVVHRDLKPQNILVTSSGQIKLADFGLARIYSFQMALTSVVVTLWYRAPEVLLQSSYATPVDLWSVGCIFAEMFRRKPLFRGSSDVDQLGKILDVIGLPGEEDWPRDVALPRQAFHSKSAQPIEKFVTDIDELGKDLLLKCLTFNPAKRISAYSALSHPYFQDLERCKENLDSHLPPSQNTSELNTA
# T1 sequence (P30281 whole entry partner): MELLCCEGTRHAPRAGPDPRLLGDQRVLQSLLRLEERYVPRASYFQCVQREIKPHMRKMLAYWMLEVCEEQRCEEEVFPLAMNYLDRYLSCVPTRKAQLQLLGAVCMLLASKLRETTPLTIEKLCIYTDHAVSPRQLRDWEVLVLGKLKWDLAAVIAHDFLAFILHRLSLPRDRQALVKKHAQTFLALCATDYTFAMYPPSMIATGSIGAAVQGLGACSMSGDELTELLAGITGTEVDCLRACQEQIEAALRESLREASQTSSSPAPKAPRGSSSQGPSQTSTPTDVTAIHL
SMILES,pIC50 (CDK6/CyclinD3),pIC50 (CDK2/CyclinA),pIC50 (CDK1/CyclinB1),pKd (CDK9/Cyclin K)
"COc1ccccc1-c1ncnc(Nc2cccc(CS(N)(=O)=O)c2)n1 [B1′, 3-[(4-(2-Methoxyphenyl)-1,3,5-triazin-2-yl)amino]benzenemethanesulfonamide trifluoroacetic acid salt]",< 5.00,5.51,4.92,7.31
"COc1cc(F)ccc1-c1ncnc(Nc2cccc(CS(N)(=O)=O)c2)n1 [B2″, 1-(3-{[4-(4-fluoro-2-methoxyphenyl)-1,3,5-triazin-2-yl]amino}phenyl)methanesulfonamide trifluoroacetic acid salt]",< 5.00,6.25,6.05,8.30
"NS(=O)(=O)Cc1cccc(Nc2ncnc(-c3ccccc3OCc3ccccc3)n2)c1 [B13′, 3-[(4-(2-Benzyloxyphenyl)-1,3,5-triazin-2-yl)amino]benzenemethanesulfonamide trifluoroacetic acid salt]",< 5.00,5.75,5.47,8.30
"COc1ccccc1-c1ncnc(Nc2cccc(S(N)(=O)=O)c2)n1 [C1′, 3-[(4-(2-Methoxyphenyl)-1,3,5-triazin-2-yl)amino]benzenesulfonamide trifluoroacetic acid salt]",< 5.00,6.11,5.87,8.30
"COc1ccc(F)cc1-c1ncnc(Nc2cccc(CS(N)(=O)=O)c2)n1 [Compound B3, 3-[(4-(5-Fluoro-2-methoxyphenyl)-1,3,5-triazin-2-yl)amino]benzenemethanesulfonamide]",–,–,–,8.30
"COc1cccc(F)c1-c1ncnc(Nc2cccc(CS(N)(=O)=O)c2)n1 [Compound B4, 3-[(4-(6-Fluoro-2-methoxyphenyl)-1,3,5-triazin-2-yl)amino]benzenemethanesulfonamide]",< 5.00,5.84,5.25,7.68
"COc1cc(Cl)ccc1-c1ncnc(Nc2cccc(CS(N)(=O)=O)c2)n1 [Compound B6, 3-[(4-(4-Chloro-2-methoxyphenyl)-1,3,5-triazin-2-yl)amino]benzenemethanesulfonamide]",< 5.00,< 5.00,< 5.00,7.90
"CCOc1ccccc1-c1ncnc(Nc2cccc(CS(N)(=O)=O)c2)n1 [Compound B12, 3-[(4-(2-Ethoxyphenyl)-1,3,5-triazin-2-yl)amino]benzenemethanesulfonamide]",< 5.00,5.53,4.94,7.95
"NS(=O)(=O)Cc1cccc(Nc2ncnc(-c3ccccc3Oc3ccccc3)n2)c1 [Compound B14, 1-(3-{[4-(2-phenoxyphenyl)-1,3,5-triazin-2-yl]amino}phenyl)methanesulfonamide]",–,–,–,7.58
"NS(=O)(=O)Cc1cccc(Nc2ncnc(-c3ccccc3OCc3ccncc3)n2)c1 [Compound B16, 3-[(4-(2-((4-Pyridinyl)methoxy)phenyl)-1,3,5-triazin-2-yl)amino]benzenemethanesulfonamide]",< 5.00,5.97,5.17,8.24
"COc1cnccc1-c1ncnc(Nc2cccc(CS(N)(=O)=O)c2)n1 [Compound B19, 3-[(4-(3-Methoxypyridin-4-yl)-1,3,5-triazin-2-yl)amino]benzenemethanesulfonamide]",–,–,–,7.94

# Further lines, results first:
pIC50 (CDK6/CyclinD3),pIC50 (CDK2/CyclinA),pIC50 (CDK1/CyclinB1),pKd (CDK9/Cyclin K),SMILES
< 5.00,6.29,5.59,7.00,"COc1ccccc1-c1ncnc(Nc2cccc(CCS(N)(=O)=O)c2)n1 [Compound D1, 2-[3-((4-(2-Methoxyphenyl)-1,3,5-triazin-2-yl)amino)phenyl]ethanesulfonamide]"
< 5.00,6.37,< 5.00,8.30,"COc1cc(F)ccc1-c1ncnc(Nc2cccc(CCS(N)(=O)=O)c2)n1 [Compound D2, 2-[3-((4-(4-Fluoro-2-methoxyphenyl)-1,3,5-triazin-2-yl)amino)phenyl]ethanesulfonamide]"
–,–,–,7.80,"COc1ccccc1-c1ncnc(Nc2cccc([N+](=O)[O-])c2)n1 [Compound H1, 4-(2-Methoxyphenyl)-N-(3-nitrophenyl)-1,3,5-triazine-2-amine]"
< 5.00,6.08,< 5.00,7.44,"COc1ccccc1-c1ncnc(Nc2cccc(NS(C)(=O)=O)c2)n1 [Compound K1, N-[3-((4-(2-Methoxyphenyl)-1,3,5-triazin-2-yl)amino)phenyl]-methanesulfonamide]"
< 5.00,< 5.00,< 5.00,–,"CCCS(=O)(=O)Nc1cccc(Nc2ncnc(-c3ccccc3OC)n2)c1 [Compound L1, N-[3-((4-(2-Methoxyphenyl)-1,3,5-triazin-2-yl)amino)phenyl]-propanesulfonamide]"
